From patent US20250360167A1 (Keryx Biopharmaceuticals, Inc., priority 2013, published 2025)

What was measured:
Assay type in all cases: in vivo, human
[1] = tested on: Product Of Calcium And Phosphorus; assay: Phase 3 trial (Example 1): phosphorus times calcium product
Description: Serum phosphorus and calcium were performed at Screening (Visit 0); weekly during the Washout Period after Visit 1 (Week −2); at Visit 4 (Randomization Visit); at Visits 5 (Week 1), 6 (Week 2), 7 (Week 4), 8 (Week 6), 9 (Week 8), 10 (Week 10), 11 (Week 12), 12 (Week 16), 13 (Week 20), 14 (Week 24), 15 (Week 28), 16 (Week 32), 17 (Week 36), 18 (Week 40), 19 (Week 44), 20 (Week 48), and 21 (Week 52) of the 52-week Safety Assessment Period; and at Visits 22 (Week 53), 23 (Week 54), 24 (Week 55) and 25 (Week 56) of the Efficacy Assessment Period.
These variables will be analyzed using LOCF methodology. ANCOVA will be employed. The model will include treatment (fixed effect), and Visit-4 baseline (covariate). An analysis using MMRM method will be conducted as a sensitivity analysis. The least square mean estimates of the treatment effects as well as the 2-sided 95% confidence intervals (CI) of the treatment effects will be derived.
• 1. Change in serum calcium concentration at Weeks 12, 24, 36, 48, and 52 as compared to baseline (Visit 4). This variable will be analyzed using LOCF methodology. ANCOVA will be employed. The model will include treatment (fixed effect), and baseline (covariate). • 2. Change in ferritin, and TSAT at Weeks 12, 24, 36 and 48 as compared to baseline (Visit 4). This variable will be analyzed using LOCF methodology. ANCOVA will be employed. The model will include treatment (fixed effect), and baseline (covariate). • 3. Change in serum iron and TIBC at Weeks 12, 24, 36, 48, and 52 as compared to baseline (Visit 4). This variable will be analyzed using LOCF methodology. ANCOVA will be employed. The model will include treatment (fixed effect), and baseline (covariate). • 4. Change in Ca x P product at Weeks 12, 24, 36, 48, and 52 as compared to baseline (Visit 4). This variable will be analyzed using LOCF methodology. ANCOVA will be employed. The model will include treatment (fixed effect), and baseline (covariate). • 5. Change in iPTH at Weeks 12, 36, 52, and 56 as compared to baseline (Visit 4). This variable will be analyzed using LOCF methodology. ANCOVA will be employed. The model will include treatment (fixed effect), and baseline (covariate). • 6. Change in serum […], vitamin A, vitamin B-12, vitamin E, vitamin K and folic acid at Weeks 12, 36, and 52 as compared to baseline (Visit 4). This variable will be analyzed using LOCF methodology. ANCOVA will be employed. The model will include treatment (fixed effect), and baseline (covariate). • 7. Change in serum bicarbonate concentration at Weeks 12, 36, and 52 as compared to baseline (Visit 4). This variable will be analyzed using LOCF methodology. ANCOVA will be employed. The model will include treatment (fixed effect), and baseline (covariate). • 8. Change in IV iron intake at Weeks 12, 24, 36, 48, and 52 as compared to baseline (Visit 4). This variable will be analyzed using LOCF methodology. ANCOVA will be employed. The model will include treatment (fixed effect), and baseline (covariate). • 9. Change in the use of EPO (ESA) administered at Weeks 12, 24, 36, 48, and 52 as compared to baseline (Visit 4). This variable will be analyzed using LOCF methodology. ANCOVA will be employed. The model will include treatment (fixed effect), and baseline (covariate). • 10. Change in the use of Vitamin D supplementation (and its analogs) and Sensipar (cinacalcet) at Weeks 12, 24, 36, 48, and 52 as compared to baseline (Visit 4). This variable will be analyzed using LOCF methodology. ANCOVA will be employed. The model will include treatment (fixed effect), and baseline (covariate). • 11. Change in LDL, HDL, and triglycerides at Weeks 12, 36, and 52 as compared to baseline (Visit 4). This variable will be analyzed using LOCF methodology. ANCOVA will be employed. The model will include treatment (fixed effect), and baseline (covariate).

[2] = Phase 3 trial (Example 1): cumulative EPO (ESA) administered to Week 52
Source text: The cumulative EPO (ESA) administrated from randomization to Week 52 will be compared between treatment groups. This variable will be similarly analyzed as the primary efficacy variable using ANCOVA method. The two-sided 95% confidence intervals of treatment differences for all above comparisons will be presented.

serum phosphorus = assay: Phase 2 trial in anemic Stage III to V CKD subjects not on dialysis (Example 2): serum phosphorus
Description: This trial is a three-period clinical trial consisting of a screening period, a two-week washout period, and a 12-week treatment period.
If a subject has a serum phosphorus ≥6.0 mg/dL for at least two visits in a row during the 12-week treatment period, the subject is considered a treatment failure, stops study drug and exits the study.
The target level for serum phosphorus is 3.0 to 4.0 mg/dL. Subjects are titrated as follows: • 1. If serum phosphorus is at target (3.0 to 4.0 mg/dL), no adjustment in dose is required. • 2.
Change in serum phosphorus, ferritin and TSAT levels from baseline to end of treatment after 12 weeks are the primary endpoints.
The co-primary efficacy endpoints of this trial were the mean changes in serum phosphorus and TSAT from baseline to the end of the 12-week treatment period versus placebo in the ITT group.

## iron (+3), x (1, 2, 3-propanetricarboxylic acid, 2-hydroxy-), y (H2O) [KRX-0502]
[1]; Baseline, Table 12
  Product Of Calcium And Phosphorus, Mean: 65.4075
  Product Of Calcium And Phosphorus, Median: 62.7000
[1]; Table 12
  Product Of Calcium And Phosphorus, Week 12 Change from Baseline, Mean: −16.5635
  Product Of Calcium And Phosphorus, Week 12 Change from Baseline, Median: −16.7400
[1]; Week 12, ANCOVA, Table 12
  Product Of Calcium And Phosphorus, LS Mean: 48.97
[1]; Week 12, Table 12
  Product Of Calcium And Phosphorus, Mean: 48.8440
  Product Of Calcium And Phosphorus, Median: 47.5000
[1]; Week 12, control = sevelamer carbonate as a single agent
  Product Of Calcium And Phosphorus, Treatment Differences, LS Mean (KRX-0502) − LS Mean (Control): 1.45
[2]; Safety Assessment Period, Full Analysis Population, Method 1 to handle overlapping doses
  Average Daily EPO (ESA) intake based on the Cumulative EPO (ESA) intake to week 52 (Visit 4-21), Median: 724.24
[2]; Safety Assessment Period, Full Analysis Population, Method 1 to handle overlapping doses, SD in the next cell
  Average Daily EPO (ESA) intake based on the Cumulative EPO (ESA) intake to week 52 (Visit 4-21), Mean: 1077.67
[2]; administered over a period of 52 weeks, stated as embodiment
  decrease in median ESA intake: 27.1%
Serum phosphorus; Baseline, ITT group, n = 72
  Mean Serum Phosphorus, Baseline: 4.5 mg/dL
Serum phosphorus; Week 12, last observation carried forward, ITT group, n = 72
  Mean Serum Phosphorus, End of Treatment (Week 12): 3.9 mg/dL
Serum phosphorus; mean changes baseline to end of 12-week treatment vs placebo, ITT, 141 subjects
  co-primary (serum phosphorus, TSAT) and key secondary endpoints (ferritin, hemoglobin, FGF-23): met both co-primary and all key secondary endpoints with highly statistically significant results
Serum phosphorus; sample size assumption
  ending serum phosphorus at Visit 11 (Week 12): approximately 4.3 mg/dL
